US7063842B2, “Compounds and methods for inhibiting the interaction between α-catenin and β-catenin” (McGill University, priority 1997, dated 2006)
Positions of bridges follow the written chain, without caps; N, C: chain ends.

Legend:
[1] = test system: Normal human breast A1N4 cells; assay: Disruption of cell adhesion: microinjection of peptide/DAPI mixture into cells, morphology noted at hourly intervals; format: cell-based; conditions: 0.2 pL peptide/DAPI mixture injected, final intracellular concentration of peptide 0.5 mg/ml, after 4 hours
Experimental: Three peptides (N-Ac-CKHAVVNC-NH2, N-Ac-CKHGWNC-NH2, and H-KHAVVN-OH; SEQ ID NOS: 5, 51 and 8 respectively) were tested for their ability to disrupt cell adhesion. Normal human breast A1N4 cells were grown on gridded glass coverslips to approximately 30% confluence. Peptides were dissolved in distilled water at a concentration of […]. Each of the three peptide solutions was mixed 1:1 with a solution containing the fluorescent marker DAPI (Molecular Probes Inc., Eugene, Oreg.) dissolved in water at a concentration of 40 μg/ml. All of the mixtures were centrifuged at 10,000×g for 5 minutes immediately before use in the experiments. An aliquot ([…]) of each peptide/DAPI mixture was taken up in an Eppendorff microinjection pipette. Microinjection was performed using an Eppendorf microinjector and micromanipulator coupled to an IM35 inverted Zeiss microscope with phase contrast and Hoffman optics. Cells to be injected were located and their position on the grid noted. For microinjection, the pipette was brought close to the cell layer and the micromanipulator programmed to return to the same plane. Cells were injected with 0.2 pL of peptide/DAPI mixture. This corresponds to approximately 1/100 of the cell volume and results in a final intracellular concentration of peptide of 0.5 mg/ml. […] After 4 hours, a difference in the morphology of the cells injected with the various peptides was observed.

[2] = test system: α-catenin/β-catenin interactions; assay: Immunoprecipitation from adult mouse brain extracts, Western blot probed with anti-α-catenin / anti-β-catenin antibodies; format: binding; conditions: adult mouse brain homogenate incubated 3 hours at 4° C. with peptide at 1 mg/ml
Experimental: As noted above, modulating agents are capable of disrupting an interaction between α-catenin and β-catenin. This ability may generally be evaluated using any suitable assay known to those of ordinary skill in the art. For example, an immunoprecipitation as described herein may be employed. Within such an assay, disruption of the interaction is measured by assessing the ability of an antibody directed against β-catenin to immunoprecipitate α-catenin in the presence and absence of the modulating agent. For example, tissue such as brain may be homogenized in the presence and absence of modulating agent. The ability of an antibody directed against β-catenin to immunoprecipitate α-catenin from the homogenate is then assessed by probing a Western blot of proteins immunoprecipitated from the tissue homogenate by anti-β-catenin antibody with an anti-α-catenin antibody. […]
These peptides, as well as two control peptides (H-CKHGWNC-OH, SEQ ID NO:6, and H-CKHGWNC-OH, SEQ ID NO:51) were analyzed for their ability to disrupt α-catenin/β-catenin interactions, as judged by standard immunoprecipitation methods. […] Finally, the membrane was washed 3 times with TTBS, and the immunoreactive proteins were detected using an enhanced chemiluminescence kit (ECL; Amersham Life Sciences Inc., Oakville, Ontario) and autoradiographic film (Fuji, Minami-Ashigara, Japan). […]

Substance	morphology of the injected cells [1]	ability to disrupt α-catenin/β-catenin interactions, as judged by immunoprecipitation [2]
Ac-CKHGWNC-NH2 (cysteine pairing not given here) [N-Ac-CKHGWNC-NH2 (SEQ ID NO:51), reference compound]	indistinguishable from surrounding uninjected cells	
H-CKHAVVNC-OH (cysteine pairing not given here) [H-CKHAVVNC-OH (SEQ ID NO:4)]		capable of disrupting the interaction between α-catenin and β-catenin
H-KHAVVN-OH [H-KHAVVN-OH (SEQ ID NO:8)]	had become rounded, and they were detached from their neighbors	
N-Ac-CKHAVVNC-NH2 (disulfide 1-8 (inferred)) [N-Ac-CKHAVVNC-NH2 (SEQ ID NO:5)]	indistinguishable from surrounding uninjected cells	
H-Cys-Lys-His-Ala-Val-Val-Asn-Cys-OH (H-CKHAVVNC-OH; cysteine pairing not given here) [H-CKHAVVNC-OH (SEQ ID NO:5)]		capable of disrupting the interaction between α-catenin and β-catenin
